This is an account of results in US9518976B2, “Methods for identifying or assaying for agents that increase beta-cell proliferation, insulin secretion, insulin sensitivity, glucose tolerance and decrease fat mass” (The Trustees of Columbia University in The City of New York, priority 2006, dated 2016).

One assay has as its system osteoblasts. Put plainly: Osteocalcin/hydroxyapatite (HA) binding assay on medium of warfarin-treated osteoblasts. The class given is cell-based, mouse. As for the experimental part:
Primary osteoblasts were prepared from calvaria of 5 day-old pups as previously described (Ducy et al., 2000a) and were cultured in αMEM/10% FBS in the presence of 100 μg/ml ascorbic acid and 5 mM β-glycerophosphate for 5 days. Skin fibroblasts were isolated by collagenase digestion (0.5 mg/ml) and were cultured in […]MEM/10% FBS. Twenty-four hours before addition of primary islets (or adipocytes), osteoblasts (or fibroblasts) were placed in αMEM/1% FBS. […] After 4 h of co-culture, either in the presence or absence of (1 μm) culture inserts (Falcon) islets (or adipocytes) were collected for RNA isolation using TRIZOL (Invitrogen).
Sera from 1 month-old mice, obese patients or supernatant from warfarin-treated osteoblast cultures were added to HA slurry to achieve a final concentration of 25 mg slurry/ml. After 15 min (mouse sera, supernatant) or 30 min (human sera), HA beads were pelleted by centrifugation and HA-bound osteocalcin was eluted with 0.5M sodium phosphate buffer, pH 8.0. Osteocalcin present in eluates and initial samples was measured by IRMA. Values represent percentage of HA-bound osteocalcin over initial osteocalcin content. Hauschka, P. V., et al., Physiol Review 69, 990-1047 (1989).
To determine whether this was the case, two additional experiments were performed. […] Second, carboxylated osteocalcin and bacterially produced mouse osteocalcin, which is not carboxylated, were used in cell-based assays. […] Lastly, we studied human obese patients that are hyperinsulinemic but not diabetic (FIG. 7M).

The next assay relates to WT adipocytes. Put plainly: Adiponectin expression in WT adipocytes cocultured with warfarin-treated osteoblasts. The class given is cell-based, mouse. To be noted: adipocytes cocultured with warfarin-treated vs vehicle-treated osteoblasts (FIG. 7J). The text has this:
FIG. 7. Esp−/− Mice Are a Model of Increased Osteocalcin Bioactivity. (A-G) Comparison between 6-week-old WT, Esp−/, Ocn+/−, and Esp−/−; Ocn+/− mice. (A) Blood glucose levels. (B) Serum insulin levels. (C) Serum adiponectin levels. (D) GTT. (E) ITT. (F) GSIS test. (G) Quantification of the number of Ki67-immunoreactive cells in pancreatic islets. […] (J) Expression of Adiponectin in WT adipocytes cocultured with osteoblasts treated with warfarin or vehicle. (K) Expression of Adiponectin in WT adipocytes cultured in presence of vehicle or of 1 ng/ml of commercially available carboxylated osteocalcin (Immunotopics) or bacterially produced uncarboxylated osteocalcin. (L) Expression of Insulin and Cyclin D1 in WT islets cultured in presence of 0.3 ng/ml of bacterially produced uncarboxylated osteocalcin or vehicle. (M) Metabolic parameters and total serum osteocalcin levels in control and obese patients. (N-O) Quantification of carboxylated osteocalcin (HA-bound osteocalcin) in control and obese patients. In (A)-(C) and (G)-(L): *p<0.05 versus WT (Student's t test); in (D)-(F), °p<0.05 versus WT and *p % 0.001 versus WT (ANOVA followed by post hoc analysis).
Primary osteoblasts were prepared from calvaria of 5 day-old pups as previously described (Ducy et al., 2000a) and were cultured in αMEM/10% FBS in the presence of 100 μg/ml ascorbic acid and 5 mM β-glycerophosphate for 5 days. […]

In the case of `CC(=O)CC(c1ccccc1)c1c(O)c2ccccc2oc1=O` (stereo not shown) [warfarin], the “percentage of osteocalcin bound to HA” value in the assay on osteoblasts (conditioned medium of warfarin-treated osteoblasts vs vehicle, 50 μM, 48 h, 15 min HA incubation) was “marked decrease”. Further, the “osteocalcin secreted by osteoblasts” value in the assay with osteoblasts (warfarin-treated osteoblasts (vehicle 10 ng/ml)) was determined as 2 ng/mL. Moreover, in the assay on osteoblasts (warfarin-treated vs vehicle-treated osteoblasts (FIG. 7I)), the “levels of undercarboxylated osteocalcin produced by osteoblasts” value is given as “elevated”. Moreover, in the assay with WT adipocytes, the “adiponectin expression induced by treated osteoblasts” value is on record as “significantly higher extent”.
